The test system of test [1] is NGF production in the L-M cells. Briefly: Enhancing activity for NGF production, Example 13 method (20 hours culture after addition). Type of test: cell-based, murine. Conditions: for activity at 12.5 µM: added amount 12.5 μM; for activity at 3.125 µM: added amount 3.125 μM; for activity at 6.25 µM: added amount 6.25 μM; for Enhancement of NGF production (in words): L-M cells. How it is done:
(§1) L-M cells (ATCC CCL-1.2) from murine fibroblasts were suspended in an M199 medium (manufactured by ICN) containing 0.5% bactopeptone (manufactured by Gibco BRL) so as to have a concentration of 1.5×10^5 cells/mi. The suspension was put in a 96-well plate in an amount of 0.1 ml each well, and the cells were aseptically cultured. After culturing the cells for 3 days, the medium was removed therefrom, and exchanged with an M199 medium containing 0.5% bovine serum albumin (manufactured by Sigma). Caffeic acid (manufactured by Sigma, dimethyl suif oxide (DMSO) solution), a substance known to have enhancing activity for NGF production, was added to each well containing the cells, so as to have a final concentration of 0, 50, 100 or 200 μM, and the cells were cultured for 24 hours. One having a caffeic acid concentration of 0 μM was used as a negative control. In addition, the final concentration of DM50 in each well was adjusted to 0.1%. After the termination of the culture, the NGF concentration in the culture medium was determined by an enzyme immunoassay method (NGF Emax Immuno Assay System, manufactured by Promega). The degree of the enhancement for NGF production of caffeic acid at each added amount was expressed in percentage as the enhancement ratio (%) on the basis of the NGF concentration in the cell culture medium at each added amount, when the NGF concentration in the cell culture medium of the negative control was defined as 100%. The experiment was carried out twice, and an average value was taken. It was shown that the enhancing activity for NGF production of caffeic acid could be assayed by this method.
The enhancing activity for NGF production of each of the compounds (5) to (12), (17) to (22), (24) and (25) prepared in Preparation Examples 2 to 9 and Examples 1 to 8, and the compound (23) (rosemarinic acid; manufactured by Funakoshi), or caffeic acid (CA), 4-methylcatechol (4MC) and epinephrine (EN), substances conventionally known to enhance NGF production was assayed in the same manner as in Reference Example 1. In addition, the time period for cell culture after the addition of the compound was 20 hours. A negative control was set for every test of each compound. Each experiment was carried out twice, and an average value was taken.
(1) L-M cells (ATCC CCL-1.2) from murine fibroblasts were suspended in an M199 medium (manufactured by ICN) containing 0.5% bactopeptone (manufactured by Gibco) so as to have a concentration of 1.5×10^5 cells/ml. The suspension was put in a 96-well plate in an amount of 0.1 ml each well, and the cells were aseptically cultured. After culturing the cells for 3 days, the medium was removed therefrom, and exchanged with an M199 medium containing 0.5% bovine serum albumin (manufactured by Sigma). Thereto was added an yellow pigment (powder Sun Yellow No. 2, manufactured by San-Ei Gen F.F.I.) obtained by extraction from flower of Carthamus tinctorius LINNE) as the sample so as to have a final concentration of 0, 1.25, 2.5 or 5 mg/ml, and the cells were cultured for 20 hours. After the termination of the culture, the NGF concentration in the culture medium was assayed by an enzyme immunoassay method (NGF Emax Immuno Assay System, manufactured by Promega). The degree of the enhancement for NGF production was expressed in the percentage as an enhancement ratio (%), when the NGF concentration in the cell culture medium with no addition of the sample as the negative control was defined as 100%. The experiment was carried out twice, and an average value was taken. […]
The enhancing activity for NGF production of the purified safflomin A thus obtained was determined in the same manner as in Example 13. The purified safflomin A was added so as to have a fmal concentration of 0 or 2.5 mg/ml. […]

The test system is the same in test [2]. Briefly: Enhancing activity for NGF production, Reference Example 1 method (24 hours culture, NGF enzyme immunoassay of culture medium). Conditions: for Enhancement of NGF production (in words): L-M cells; for Enhancement Ratio (%): negative control = 100%. It is filed as cell-based, murine. As to the method:
as §1
The enhancing activity for NGF production of the compound (13) (manufactured by Funakoshi) was assayed in the same manner as in Reference Example 1. The compound (13) was added so as to have a final concentration of 0, 0.5, 1, 2, 5, 10, 20 or 50 μM.
The enhancing activity for NGF production of a compound (14) (manufactured by Sigma) was assayed in the same manner as in Reference Example 1. The compound (14) was added so as to have a final concentration of 0, 50, 100 or 200 μM.
The enhancing activity for NGF production of a compound (15) (manufactured by Sigma) was assayed in the same manner as in Reference Example 1. The compound (15) was added so as to have a final concentration of 0, 12.5, 25 or 50 μM.
The enhancing activity for NGF production of a compound (16) (manufactured by Wako Pure Chemical Industries) was assayed in the same manner as in Reference Example 1. The compound (16) was added so as to have a final concentration of 0, 25, 50 or 100 μM.

Where [3] appears, read: Mus musculus, negative control = 100%, read-out: Enhancement Ratio (%).
Setting [4] is: Mus musculus, added amount 25 μM, negative control = 100%, read-out: Enhancement Ratio (%).
[5] abbreviates: added amount 100 μM, negative control = 100%.
[6] abbreviates: Mus musculus, added amount 50 μM, negative control = 100%, read-out: Enhancement Ratio (%).
Setting [7] is: Mus musculus, added amount 100 μM, negative control = 100%, read-out: Enhancement Ratio (%).
[8] abbreviates: Mus musculus, added amount 200 μM, negative control = 100%, read-out: Enhancement Ratio (%).

As for `Cc1ccc(O)c(O)c1` [Compound 4MC, 4-methylcatechol, reference compound], the activity at 12.5 µM in test [1] (setting [3]) was 143%. Also, in test [1] (setting [4]), the activity at 25 µM was 313%.

Turning to `O=C(C/C=C/c1ccc(O)c(O)c1)C12CC3CC(CC(C3)C1)C2` [Compound (11), 1-Adamantyl-4-(3,4-dihydroxyphenyl)-3-buten-1-one], the activity at 0.781 µM in test [1] (Mus musculus, added amount 0.781 μM, negative control = 100%, read-out: Enhancement Ratio (%)) was 775%. Also, the activity at 1.563 µM in test [1] (Mus musculus, added amount 1.563 μM, negative control = 100%, read-out: Enhancement Ratio (%)) worked out at 866%.

`O=C(/C=C/c1ccc(O)c(O)c1)C12CC3CC(CC(C3)C1)C2` [Compound (9), 1-Adamantyl-3-(3,4-dihydroxyphenyl)-2-propen-1-one]: in test [1] (setting [3]), the activity at 3.125 µM turned out to be 206%, the activity at 6.25 µM stood at 550% and the activity at 12.5 µM turned out to be 810%.

`O=C(/C=C/c1ccc(O)c(O)c1)OCCc1ccccc1` [Compound (15), Caffeic acid phenylethylester]: in test [2], the “Enhancement of NGF production (in words)” value is listed as “enhanced NGF production in the L-M cells in a concentration-dependent manner”. Also, the “Enhancement Ratio (%)” value in test [2] (added amount 12.5 μM) stood at 236%; in test [2] (added amount 25 μM), 263%; in test [2] (added amount 50 μM) it was 320%.

Regarding Isoliquiritigenin [Compound (14)], the “Enhancement of NGF production (in words)” value in test [2] was “enhanced NGF production in the L-M cells in a concentration-dependent manner”. Further, the results for the “Enhancement Ratio (%)” value in test [2] (added amount 50 μM), in test [2] (added amount 100 μM) and in test [2] (added amount 200 μM) were 310%, 550% and 1884%, respectively.

In the case of `COc1cc(O)c(CC=C(C)C)c(O)c1C(=O)/C=C/c1ccc(O)cc1` [xanthohumol, Xanthohumol], the “Enhancement of NGF production (in words)” value in test [1] was “enhanced NGF production in the L-M cells in a concentration-dependent manner”. Besides, the activity at 15.6 µM in test [1] (Mus musculus, added amount 15.6 μM, negative control = 100%, read-out: Enhancement Ratio (%)) was 160%. Besides, the activity at 31.3 µM in test [1] (Mus musculus, added amount 31.3 μM, negative control = 100%, read-out: Enhancement Ratio (%)) came to 212%. In test [1] (Mus musculus, added amount 62.5 μM, negative control = 100%, read-out: Enhancement Ratio (%)), the activity at 62.5 µM is 473%. In addition, the activity at 125 µM in test [1] (Mus musculus, added amount 125 μM, negative control = 100%, read-out: Enhancement Ratio (%)) came out at 897%.

In the case of `O=C(CC(O)Cc1ccc(O)c(O)c1)C12CC3CC(CC(C3)C1)C2` (stereo not drawn) [Compound (12), 1-Adamantyl-3-hydroxy-4-(3,4-dihyroxyphenyl)-butan-1-one], in test [1] (setting [3]), the activity at 3.125 µM is 108%, the activity at 6.25 µM came to 364% and the activity at 12.5 µM was determined as 966%. The activity at 25 µM in test [1] (setting [4]) turned out to be 908%.

In the case of Rosmarinic acid [Compound (23)], the “Enhancement Ratio (%)” value in test [1] (setting [5]) came out at 110.9%; in test [1] (added amount 200 μM, negative control = 100%) it was 131.1%.

Turning to `O=C(CCc1ccc(O)c(O)c1)c1ccc(O)cc1O` [Compound (10), Dihydrobutein], in test [1] (setting [3]), the activity at 6.25 µM amounted to 174% and the activity at 12.5 µM turned out to be 333%. For the same compound, the activity at 25 µM in test [1] (setting [4]) was found to be 839%.

For the compound Xanthoangelol [Compound (24)], the “Enhancement Ratio (%)” value in test [1] (added amount 25 μM, negative control = 100%) is on record as 126.1%; in test [1] (added amount 50 μM, negative control = 100%) it was 202.6%; in test [1] (setting [5]) it was 265.7%.

For the compound `O=C(/C=C/c1ccc(O)c(O)c1)c1ccc(O)c(O)c1O` [Compound (22), 3,4,2′,3′,4′-Pentahydroxy chalcone], the activity at 50 µM in test [1] (setting [6]) was 124%. Moreover, the activity at 100 µM in test [1] (setting [7]) was found to be 130%. The activity at 200 µM in test [1] (setting [8]) turned out to be 242%.

For `O=C(/C=C/c1ccc(O)c(O)c1)c1ccc(O)c(O)c1` [Compound (19), 3,4,3′,4′-Tetrahydroxychalcone], the activity at 12.5 µM in test [1] (setting [3]) was found to be 269%. Besides, the activity at 25 µM in test [1] (setting [4]) turned out to be 312%. In addition, in test [1] (setting [6]), the activity at 50 µM was 844%.

For `O=C(/C=C/c1ccc(O)c(O)c1)c1ccc(Cl)cc1Cl` [Compound (6), 3,4-Dihydroxy-2′,4′-dichloro chalcone], in test [1] (setting [3]), the activity at 6.25 µM was 763% and the activity at 12.5 µM stood at 864%.

In the case of `CNC[C@H](O)c1ccc(O)c(O)c1` [EN, epinephrine, reference compound], the activity at 50 µM in test [1] (setting [6]) amounted to 137%. The activity at 100 µM in test [1] (setting [7]) was 218%. In test [1] (setting [8]), the activity at 200 µM turned out to be 255%.

For the compound `COc1ccc(C(=O)/C=C/c2ccc(O)c(O)c2)c(OC)c1` [Compound (7), 3,4-Dihydroxy-2′,4′-dimethoxy chalcone], in test [1] (setting [3]), the activity at 6.25 µM came to 359% and the activity at 12.5 µM worked out at 410%. For the same compound, the activity at 25 µM in test [1] (setting [4]) came out at 899%.

In the case of α-Hydroxybutein [Compound (25)], the “Enhancement Ratio (%)” value worked out at 160.6% in test [1] (added amount 31.25 μM, negative control = 100%); 183.6% in test [1] (added amount 62.5 μM, negative control = 100%); 273.6% in test [1] (added amount 125 μM, negative control = 100%); 495.3% in test [1] (added amount 250 μM, negative control = 100%).

Regarding Safflomin A, the “Enhancement of NGF production (in words)” value in test [1] is “enhanced NGF production of the L-M cells”. Further, the “Enhancement Ratio (%)” value in test [1] (added amount 2.5 mg/ml, negative control = 100%) was found to be 130.7%.

With `CC(=O)Oc1ccc(C(=O)/C=C/c2ccc(OC(C)=O)c(OC(C)=O)c2)c(OC(C)=O)c1` [Compound (5), 3,4,2′,4′-Tetraacetylbutein], the activity at 6.25 µM in test [1] (setting [3]) was found to be 684%.

As to `O=C(/C=C/c1ccc(O)c(O)c1)c1ccccc1O` [Compound (21), 3,4,2′-Trihydroxychalcone], the activity at 25 µM in test [1] (setting [4]) was determined as 223%. Moreover, the activity at 50 µM in test [1] (setting [6]) amounted to 229%. The activity at 100 µM in test [1] (setting [7]) came out at 502%.

Consider `O=C(/C=C/c1ccc(O)c(O)c1)c1cc(O)cc(O)c1` [Compound (20), 3,4,3′,5′-Tetrahydroxychalcone], for which the activity at 12.5 µM in test [1] (setting [3]) is 346%. The activity at 25 µM in test [1] (setting [4]) turned out to be 482%. Moreover, the activity at 50 µM in test [1] (setting [6]) turned out to be 692%.

Take `CC(=O)C=Cc1ccc(O)c(O)c1` [Compound (8), 4-(3,4-Dihydroxyphenyl)-3-buten-2-one]: in test [1] (setting [6]), the activity at 50 µM worked out at 375%. Also, the activity at 100 µM in test [1] (setting [7]) was determined as 676%.

With `O=C(/C=C/c1ccc(O)c(O)c1)c1cc(O)ccc1O` [Compound (18), 3,4,2′,5′-Tetrahydroxychalcone], in test [1] (setting [3]), the activity at 6.25 µM came to 471% and the activity at 12.5 µM worked out at 476%. The activity at 25 µM in test [1] (setting [4]) was determined as 874%.

Regarding `O=C(/C=C/c1cc(O)c(O)c(O)c1)c1ccc(O)cc1O` [Compound (17), 3,4,5,2′,4′-Pentahydroxychalcone], the activity at 12.5 µM in test [1] (setting [3]) was determined as 195%. Further, the activity at 25 µM in test [1] (setting [4]) came to 598%.

The values above are taken from patent US7268160B2, “Remedies” (Takara Bio, Inc., priority 2000, dated 2007).
